{"source": "patent US20240408081A1", "about": "“NOVEL SYNERGISTIC COMBINATIONS AND METHODS OF USE THEREOF FOR TREATING CANCERS” (UNIVERSITE DE BORDEAUX, priority 2021, published 2024)", "key": {"[1]": {"tested_on": "Huh6 and HepG2 hepatoblastoma cells", "assay": "Growth and viability of hepatoblastoma cells (Huh6 and HepG2), 2D and 3D spheroid", "assay_type": "cell-based, human", "procedure": "(§1) For 2D culture, a total of 2,000 cells/well for Huh6 and 3,000 cells/well for HepG2 were seeded in 96-well microtiter plates. Cell growth was measured at 24 h, 48h, 72h or 96h after genetic manipulation and at 48h or 72h after drug treatment using the in vitro MTS assay Kit or Sulforhodamine B (SRB, Absorbance at 565 nm) assay (Sigma) following manufacturer's instructions. For 3D culture, spheroids were formed as described above and microplates were incubated in an IncuCyte® S3 live cell analysis system and scanned every 8 hours. For genetic manipulation, the lentiviral transductions or the gene depletions were done before the plating. For drug treatments, depending on the experiment and the drug, spheroids were treated at day 4 or 5 for 48h or 72h. Cell viability assay in spheroids was done using 1 μM calcein AM (BioLegend) and 2 μM ethidium homodimer 1 (Sigma) for 30 minutes at 37° C. Spheroids were imaged using an IncuCyte® S3 live cell analysis system. For all cell viability assays, drugs were used at half maximal inhibitory concentration (IC50)."}, "[2]": {"tested_on": "histone H3K27me3 in breast and prostate cancer cells", "settings": "cited from earlier work"}, "[3]": {"tested_on": "NEM157i, SU-DIPG-IVi and NEM163i DMG cells", "assay": "Proliferation / cell viability assay (Sulforhodamine B) in DMG cell lines", "assay_type": "cell-based, human", "settings": "SU-DIPG-IVi and NEM157i; up to 30 μM; absence of GSK-126", "procedure": "Cell growth was measured with the In vitro Toxicology Assay kit (Sulforhodamine B, Sigma Aldrich, Saint Quentin Fallavier, France) according to manufacturer's instructions. Cells were plated at a density of 2000 cells per well in 96-well plates in triplicates. Absorbance was measured at 565 nm using the CLARIOstar multiplate reader (BMG Labtech, Champigny-sur-Marne, France) at indicated time points."}, "[4]": {"settings": "rat; cited from earlier work"}, "[5]": {"tested_on": "NEM157i, NEM163i and primary BXdmg1 cells", "assay": "DMG cell migration, wound scratch assay (IncuCyte)", "assay_type": "cell-based, human", "procedure": "2×10^4 cells/well were placed in a 96-well and incubated for 24h. An IncuCyte Wound Maker (96-pin wound making tool) was used to make scratches.\nMigration was monitored by using the IncuCyte S3 live-cell analysis system (Essen BioScience, Ltd, Royston Hertfordshire, United Kingdom). […] Following functions have been used to optimize visibility of the cells: greyscale mode, bichrome mode, negative, contrast/luminosity, exposition/gamma, negative."}, "[6]": {"tested_on": "Huh6 and HepG2 cells", "assay": "Clonogenicity assay", "assay_type": "cell-based, human", "settings": "GSK-126 3 and 4 μM for Huh6 and HepG2; ATR 8 μM; SIM 4 μM; 10 days", "procedure": "Huh6 and HepG2 cells were seeded at 500 and 1000 cells/well respectively in 12-well plates. After attachment, cells were treated with drugs.\nFollowing incubation at 37° C. for 10 days, the cells were fixed with 4% PFA and stained with 0.05% crystal violet. Reading under the Fusion FX (Vilber Lourmat)."}, "[7]": {"tested_on": "Huh6 cells", "assay": "Huh6 tumor xenografts in NSG mice", "assay_type": "in vivo, NOD/LtSz-scid IL2R gamma null (NSG) mice", "settings": "intraperitoneal; GSK-126 50 mg/kg, ATR 20 mg/kg 3-times a week; cisplatin 1 mg/kg twice a week", "procedure": "NOD/LtSz-scid IL2R gamma null (NSG) mice were bred in standard conditions compliant with regulatory bodies (French government). Sterilized food and water were accessible ad libitum. One million of Huh6 cells in 50% of Matrigel were subcutaneously injected in a total volume of 100 μl in the right flank of 8- to 9-week-old female mice (26-32 g; APAFIS #32917-2021121316283534 v2, Agreement #B33063916, Ministère de l'Enseignement Supérieur, de la Recherche et de l'Innovation).\nTumor growth was monitored by caliper measurement until tumors reached an average volume of 250 mm3 (at day 12, see arrow). […] The vehicle (PBS with 5% DMSO) was injected 3-times a week. Tumor growth was monitored during 16 additional days until tumors control reached a size of 2000 mm3. Thus, all mice were euthanized. Blood was collected from all euthanatized mice and circulating ASAT, ALAT, creatinine, and urea were measured to evaluate the toxicity of the different treatments on the liver and kidneys."}, "[8]": {"tested_on": "HepG2 cells", "assay": "Cell viability assay (CellTiter 96 AQueous One / MTS) in HepG2", "assay_type": "cell-based, human", "procedure": "as §1"}}, "data": [{"smiles": "CCN(c1cc(-c2ccc(CN3CCOCC3)cc2)cc(C(=O)NCc2c(C)cc(C)[nH]c2=O)c1C)C1CCOCC1", "note": "[Tazemetostat, N-[(4,6-dimethyl-2-oxo-1H-pyridin-3-yl)methyl]-3-[ethyl(oxan-4-yl)amino]-2-methyl-5-[4-(morpholin-4-ylmethyl)phenyl]benzamide]", "values": [{"measurement": "effective concentrations on growth of hepatoblastoma cells", "setting": "[1]; 48 h", "value": "above 20 μM"}, {"measurement": "sensitivity of hepatoblastoma cells in presence of Simvastatin or Atorvastatin", "setting": "[1]; 72 h, 8 μM Atorvastatin or 4 μM Simvastatin", "value": "significantly potentiates"}]}, {"smiles": "Cc1cc(C)c(CNC(=O)c2cc(-c3ccc(N4CCN(C)CC4)nc3)cc3c2cnn3C(C)C)c(=O)[nH]1", "note": "[GSK926, N-[(4,6-dimethyl-2-oxo-1H-pyridin-3-yl)methyl]-6-[6-(4-methylpiperazin-1-yl)pyridin-3-yl]-1-propan-2-ylindazole-4-carboxamide]", "values": [{"measurement": "histone H3K27me3 level", "setting": "[2]", "value": "suppress"}]}, {"smiles": "CN(C/C=C/C#CC(C)(C)C)Cc1cccc2ccccc12", "note": "[Terbinafine]", "values": [{"measurement": "effect on DMG cell proliferation, inhibitor alone", "setting": "[3]", "value": "no effect"}]}, {"smiles": "CCCc1cc(C)[nH]c(=O)c1CNC(=O)c1cc(-c2ccnc(N3CCN(C)CC3)c2)cc2c1cnn2C(C)C", "note": "[GSK343, N-[(6-methyl-2-oxo-4-propyl-1H-pyridin-3-yl)methyl]-6-[2-(4-methylpiperazin-1-yl)pyridin-4-yl]-1-propan-2-ylindazole-4-carboxamide]", "values": [{"measurement": "clearance", "setting": "[4]", "value": "high clearance"}, {"measurement": "histone H3K27me3 level", "setting": "[2]", "value": "suppress"}]}, {"smiles": "COCCNC(=O)Nc1ccc2nc(-c3cccs3)c(-c3cccs3)nc2c1", "note": "[ACSS2 inhibitor]", "values": [{"measurement": "effect on DMG cell proliferation, inhibitor alone", "setting": "[3]", "value": "no effect"}]}, {"smiles": "CCC(C)(C)C(=O)O[C@H]1C[C@@H](C)C=C2C=C[C@H](C)[C@H](CC[C@@H]3C[C@@H](O)CC(=O)O3)[C@H]21", "note": "[Simvastatin]", "values": [{"measurement": "concentration with antitumor effect, statin alone", "setting": "[1]; 72 h", "value": "≥ 20", "unit": "µM"}]}, {"smiles": "CC(C)c1c(C(=O)Nc2ccccc2)c(-c2ccccc2)c(-c2ccc(F)cc2)n1CC[C@@H](O)C[C@@H](O)CC(=O)O", "note": "[Atorvastatin]", "values": [{"measurement": "effect on DMG cell proliferation, inhibitor alone", "setting": "[3]", "value": "no effect"}, {"measurement": "migration compared to DMSO", "setting": "[5]", "value": "slowed"}, {"measurement": "concentration with antitumor effect, statin alone", "setting": "[1]; 72 h", "value": "≥ 50", "unit": "µM"}, {"measurement": "proliferation and survival of hepatoblastoma cells (clonogenic cell assay)", "setting": "[6]", "value": "little effect"}, {"measurement": "development of hepatoblastoma in mice (tumor volume)", "setting": "[7]", "value": "no effect"}]}, {"smiles": "N.N.[Cl][Pt][Cl]", "note": "[cisplatin]", "values": [{"measurement": "IC50", "setting": "[8]", "value": 12, "unit": "µM"}, {"measurement": "development of hepatoblastoma in mice (tumor volume)", "setting": "[7]", "value": "impeded tumor growth"}]}]}
